Data set [1] relates to actinic keratosis on the scalp. Nature of the data set: Part 2 open label trial, 0.037% gel once daily for three consecutive days on the scalp. Type of data set: in vivo, human. From the text: The outcome for Part 2 is safety and efficacy in a once daily application for three consecutive days on the scalp. The efficacy in treating of the AK will be measured as reduction in AK count in the treated area of lesions which are not considered hyperkeratotic/hypertrophic.
In parallel the efficacy in treating of the AK will be measured as reduction in AK count in the treated area of lesions which are considered hyperkeratotic/hypertrophic.
The reduction in AK count will be performed at week 4 and 8 no matter the type of lesion. Also complete clearance of AKs in the treated area which are not considered hyperkeratotic/hypertrophic at week 8 will be measured.
To qualify for part 2 of the trial, the subjects must have 5-20 clinically visible and discrete AKs within 250 cm^2 area on the balding scalp (The balding part of the scalp should be greater than 25 cm^2 and up to approximately 250 cm^2). In addition to the requirement of 5-20 clinically typical, visible and discrete AKs within the selected treatment area, subjects may also have visible and discrete hyperkeratotic/hypertrophic lesions in this area. The subjects will be treated with a dose of 0.037% as a once daily three consecutive days treatment and followed for 8 weeks.
The trial consists of an initial part, where 18 subjects will be treated on the scalp. […] As this is a safety trial, it is considered justified to conduct this clinical trial as an open-label, uncontrolled trial. An early safety and tolerability evaluation will be performed following the 3 days treatment. If safety and tolerability is found acceptable by the Early Data Review Committee, and additional 44 subjects will be enrolled in order to expand safety observations and obtain an estimate of treatment efficacy.
The patients are scheduled for 7 visits: • Visit 1: within 21 days prior to day 1 • Visit 2: day 1 (application of trial medication) • Visit 3: […] (application of trial medication) • Visit 4: day 8 (+2 day) • Visit 5: week 2 (±2 day) • Visit 6: week 4 (±4 day) • Visit 7: week 8 (±7 day)
LSRs are evaluated at all visits following visit 1. AK lesion counts are performed on Visit 2, 6 and 7.
At Baseline (Day 1) and Visit 7 (Week 8), the investigator will make a clinical (visual and tactile) assessment of the extent of photo-damage in the treatment area with respect to 1) fine wrinkling, 2) coarse wrinkling, 3) mottled pigmentation, 4) roughness, 5) sallowness, 6) skin laxity, and 7) telangiectasia. Severity for each of these characteristics will be on a 5-point scale: None (0), Mild (1), Moderate (2), Severe (3), Extreme (4).
At Visit 7 (Week 8) the Investigator will make an overall clinical (visual and tactile) assessment of the subject's photo-damage change from baseline in the treatment area (including an integrated assessment of fine wrinkling, coarse wrinkling, mottled pigmentation, roughness, sallowness, skin laxity, and telangiectasia based on the subject's appearance at the baseline visit).
At Visit 7 (Week 8), the subjects will complete a self-assessment questionnaire evaluating the change in the 1) overall appearance of the skin and 2) overall feel of the skin after treatment. The scoring will be on a 5-point scale: Much worsened, Somewhat worsened, No change, somewhat improved, much improved.
The secondary response criteria will be analysed for the full analysis set and for the per protocol analysis set. The ratio of number of AK lesions at week 8 relative to baseline, excluding lesions identified at base line as hyperkeratotic/hypertrophic lesions, will be tabulated by treatment group. Separately for each treatment group, the rate and corresponding 95% confidence interval will be estimated from a negative binomial regression on the AK count at week 8 with the log baseline value as an offset variable. The same analysis will be performed for the subgroup of lesions identified as hyperkeratotic/hypertrophic at baseline. […]

Data set [2] has as its system actinic keratosis on the scalp. The data set is described as follows: Part 1 dose escalation trial, gel once daily for two consecutive days on the scalp (LSR / DLT). Type of data set: in vivo, human. From the text:
Local skin reactions (LSRs) occurs sometimes in the treated area. Often LSRs are quantified by a scale evaluating the following types of skin reactions: erythema, flaking/scaling, crusting, swelling, vasiculation/postulation, and erosion/ulceration which are categorized into categories 0-4 depending on the severity of the reactions.
Dose Limiting toxicity (DLT) is defined as the following LSR: […]
Erosion/ulceration grade 4.
Or other clinically relevant signs or symptoms observed, which the Investigator judges to be counted as a DLT. Maximum tolerated dose (MTD) is declared as dose level at which less than 4 subjects out of experience a DLT of cohort of 12 subjects.
Part 1 was a dose escalation study conducted with a once daily application of trial medication for two consecutive days and continued until the MTD was identified.
Dose escalation proceeded if the safety and tolerability data of the subject up to day 8 was reviewed and considered satisfactory. The treatment consisted of once daily treatment for 2 consecutive days. Up to 5 different doses may be investigated in cohorts of […]. The number of subjects in each cohort depended on the number of observed DLTs. However, the MTD was always be confirmed in a cohort of 12 subjects. […] Dose escalation was stopped at the 0.075% dose level as the investigators in this study felt that the application site adverse events, although manageable, could pose a problem for some patients. […] Part 2 is a study of the efficacy of the 0.037% dose identified in part 1 in a three day regimen.
Part 1: Trial medication, ingenol 3-(3,5-diethylisoxazole-4-carboxylate) gel, will be applied to the treatment area once daily for two consecutive days until the maximum tolerated dose has been reached for each formulation. Up to five different doses of active compound in gel may be investigated in cohorts 12 subjects.
Predefined grades of Local Skin Responses (LSRs) will constitute dose limiting toxicity (DLT). The maximum tolerated dose is defined as the highest dose level at which less than 4 out of12 subjects experience a Dose limiting toxicity.
The doses will be administered in an escalating manner following review of safety and tolerability data performed by the dose escalation committee. Evaluation of the safety and tolerability data will be performed after Visit 5/day 8. Then subjects will be followed for 8 weeks after first application of investigational product.

A further data set concerns dermal tumours. The data set is described as follows: in vivo studies in mice, effects on dermal tumours. Conditions: compared with ingenol mebutate. From the text:
The exact mechanism of action of ingenol 3-(3,5-diethylisoxazole-4-carboxylate) continues to be investigated, but it is believed that ingenol 3-(3,5-diethylisoxazole-4-carboxylate) has a dual mechanism of action inducing cell death as well as stimulation of immune response.

As to `CCc1noc(CC)c1C(=O)O[C@H]1C(C)=C[C@]23C(=O)[C@@H](C=C(CO)[C@@H](O)[C@]12O)[C@H]1[C@@H](C[C@H]3C)C1(C)C` [ingenol 3-(3,5-diethylisoxazole-4-carboxylate)], in data set [1] (once daily three consecutive days, scalp, 62 patients, week 8), the “reduction in AK count” value is 79%. Further, the complete clearance in data set [1] (once daily three consecutive days, scalp, week 8) amounted to 40%. Besides, in data set [1] (three day regimen, cosmetic outcome self-assessment, % of subjects), the “improvement in appearance and feel reported by subjects” value is given as “more than 90%”. Also, the “photo damage improved, share of patients” value in data set [1] (three day regimen, investigator assessment) was “two-thirds”. The “time at which side-effects maximize” value in data set [1] (three day regimen, rapid decline thereafter) amounted to 4 days. Also, the side-effects entry in data set [1] (three day regimen, scalp) is recorded as “considered acceptable”. For the same compound, the “tolerability of selected dose with respect to LSRs and application site reaction” value in data set [2] (0.037%, two days dosing regimen) was “well tolerated”. Besides, the “subjects meeting dose limiting toxicity (DLT) criteria” value in data set [2] (two day regimen, dose escalation up to 0.075%) is recorded as “no subjects met the predefined criteria for DLT”. In addition, in data set [2] (two day regimen, stopped because of application site adverse events, manageable), the “dose level at which dose escalation was stopped” value came to 0.075%. The “tolerability of 0.037% and 0.05% doses” value in data set [2] (two day treatment, compared with 0.075%) is listed as “clearly better tolerated”. Further, the “efficacy in eliminating dermal tumours” value with dermal tumours is listed as “more efficacious than ingenol mebutate”.
